Assay results: ChEMBL document CHEMBL5316324, “Discovery, Characterization, and Engineering of LvIC, an α4/4-Conotoxin That Selectively Blocks Rat α6/α3β4 Nicotinic Acetylcholine Receptors” (J Med Chem, 2023)
Numbered stars: 1 amine (or outer) side, 2 acyl side, 3 side chain; on linkers, the order of the positions; unused ones are H or OH. Bridge positions count the residues as written; N and C are the ends. Square brackets hold non-standard residues; d marks the D form. Side chains are listed from the residue outwards. Peptide text beside a SMILES is read from it. ξ: configuration not given here. ξPro(4ξ-NH2) = O=C(C1CC(N[*:3])CN1[*:1])[*:2]; ξpGlu = O=C1CCC(C(=O)O)N1

Experiments:
[1] = molecular target: T1, Nicotinic acetylcholine receptor alpha6/alpha3/beta4 (Rattus norvegicus, UniProt P04757+P12392+P43143); experiment: Inhibition of rat alpha6/alpha3beta4 nAChR expressed in Xenopus Oocytes in presence of acetylcholine by Voltage-clamp recording; format: cell-based
[2] = organism: Rattus norvegicus; experiment: Selectivity ratio of IC50 for rat alpha6/alpha3beta4 nAChR expressed in Stage V-VI Xenopus laevis oocytes in presence of acetylcholine to IC50 for rat alpha3beta4 nAChR expressed in Stage V-VI Xenopus laevis Oocytes in presence of acetylcholine by electrophysiological recording; format: cell-based
[3] = molecular target: Neuronal acetylcholine receptor; alpha2/beta2 (Rattus norvegicus, UniProt P12389+P12390); experiment: Inhibition of rat alpha2/beta2 nAChR expressed in Stage V-VI Xenopus laevis Oocytes assessed as inhibition of acetylcholine-induced current in presence of acetylcholine by electrophysiological recording; format: cell-based, Oocyte
[4] = molecular target: Neuronal acetylcholine receptor; alpha2/beta4 (Rattus norvegicus, UniProt P12389+P12392); experiment: Inhibition of rat alpha2/beta4 nAChR expressed in Stage V-VI Xenopus laevis Oocytes assessed as inhibition of acetylcholine-induced current in presence of acetylcholine by electrophysiological recording; format: cell-based, Oocyte
[5] = molecular target: Neuronal acetylcholine receptor; alpha3/beta2 (Rattus norvegicus, UniProt P04757+P12390); experiment: Inhibition of rat alpha3/beta2 nAChR expressed in Stage V-VI Xenopus laevis Oocytes assessed as inhibition of acetylcholine-induced current in presence of acetylcholine by electrophysiological recording; format: cell-based, Oocyte
[6] = molecular target: Neuronal acetylcholine receptor; alpha3/beta4 (Rattus norvegicus, UniProt P04757+P12392); experiment: Inhibition of rat alpha3/beta4 nAChR expressed in Stage V-VI Xenopus laevis Oocytes assessed as inhibition of acetylcholine-induced current in presence of acetylcholine by electrophysiological recording; format: cell-based, Oocyte
[7] = molecular target: Neuronal acetylcholine receptor; alpha4/beta2 (Rattus norvegicus, UniProt P09483+P12390); experiment: Inhibition of rat alpha4/beta2 nAChR expressed in Stage V-VI Xenopus laevis Oocytes assessed as inhibition of acetylcholine-induced current in presence of acetylcholine by electrophysiological recording; format: cell-based, Oocyte
[8] = molecular target: Neuronal acetylcholine receptor; alpha4/beta4 (Rattus norvegicus, UniProt P09483+P12392); experiment: Inhibition of rat alpha4/beta4 nAChR expressed in Stage V-VI Xenopus laevis Oocytes assessed as inhibition of acetylcholine-induced current in presence of acetylcholine by electrophysiological recording; format: cell-based, Oocyte
[9] = molecular target: Neuronal acetylcholine receptor subunit alpha-7 (Rattus norvegicus, UniProt Q05941); experiment: Inhibition of rat alpha7 nAChR expressed in Stage V-VI Xenopus laevis Oocytes assessed as inhibition of acetylcholine-induced current in presence of acetylcholine by electrophysiological recording; format: cell-based, Oocyte
[10] = molecular target: Nicotinic acetylcholine receptor alpha9/alpha10 (Rattus norvegicus, UniProt P43144+Q9JLB5); experiment: Inhibition of rat alpha9/alpha10 nAChR expressed in Stage V-VI Xenopus laevis Oocytes assessed as inhibition of acetylcholine-induced current in presence of acetylcholine by electrophysiological recording; format: cell-based, Oocyte
[11] = molecular target: Nicotinic acetylcholine receptor alpha6/alpha3/beta2/beta3 (Rattus norvegicus, UniProt P04757+P12390+P12391+P43143); experiment: Inhibition of rat alpha6/alpha3beta2beta3 nAChR expressed in Stage V-VI Xenopus laevis Oocytes assessed as inhibition of acetylcholine-induced current in presence of acetylcholine by electrophysiological recording; format: cell-based, Oocyte
[12] = molecular target: T1, Nicotinic acetylcholine receptor alpha6/alpha3/beta4; experiment: (§1) Inhibition of rat alpha6/alpha3beta4 nAChR expressed in Stage V-VI Xenopus laevis Oocytes assessed as inhibition of acetylcholine-induced current in presence of acetylcholine by electrophysiological recording; format: cell-based, Oocyte
[13] = molecular target: Nicotinic acetylcholine receptor alpha1/beta1/epsilon/delta (Mus musculus, UniProt P02716+P04756+P09690+P20782); experiment: Inhibition of mouse alpha1/beta1deltaepsilon nAChR expressed in Stage V-VI Xenopus laevis Oocytes assessed as inhibition of acetylcholine-induced current in presence of acetylcholine by electrophysiological recording; format: cell-based, Oocyte
[14] = molecular target: Neuronal acetylcholine receptor; alpha2/beta2 (Rattus norvegicus) (UniProt P12389+P12390); experiment: Inhibition of rat alpha2/beta2 nAChR expressed in Stage V-VI Xenopus laevis Oocytes assessed as inhibition of acetylcholine-induced current at 10 uM in presence of acetylcholine by electrophysiological recording relative to control; format: cell-based; conditions: Oocyte
[15] = molecular target: Neuronal acetylcholine receptor; alpha2/beta4 (Rattus norvegicus) (UniProt P12389+P12392); experiment: Inhibition of rat alpha2/beta4 nAChR expressed in Stage V-VI Xenopus laevis Oocytes assessed as inhibition of acetylcholine-induced current at 10 uM in presence of acetylcholine by electrophysiological recording relative to control; format: cell-based; conditions: Oocyte
[16] = molecular target: Neuronal acetylcholine receptor; alpha3/beta2 (Rattus norvegicus) (UniProt P04757+P12390); experiment: Inhibition of rat alpha3/beta2 nAChR expressed in Stage V-VI Xenopus laevis Oocytes assessed as inhibition of acetylcholine-induced current at 10 uM in presence of acetylcholine by electrophysiological recording relative to control; format: cell-based; conditions: Oocyte
[17] = molecular target: Neuronal acetylcholine receptor; alpha3/beta4 (Rattus norvegicus) (UniProt P04757+P12392); experiment: Inhibition of rat alpha3/beta4 nAChR expressed in Stage V-VI Xenopus laevis Oocytes assessed as inhibition of acetylcholine-induced current at 10 uM in presence of acetylcholine by electrophysiological recording relative to control; format: cell-based; conditions: Oocyte
[18] = molecular target: Neuronal acetylcholine receptor; alpha4/beta2 (Rattus norvegicus) (UniProt P09483+P12390); experiment: Inhibition of rat alpha4/beta2 nAChR expressed in Stage V-VI Xenopus laevis Oocytes assessed as inhibition of acetylcholine-induced current at 10 uM in presence of acetylcholine by electrophysiological recording relative to control; format: cell-based; conditions: Oocyte
[19] = molecular target: Neuronal acetylcholine receptor; alpha4/beta4 (Rattus norvegicus) (UniProt P09483+P12392); experiment: Inhibition of rat alpha4/beta4 nAChR expressed in Stage V-VI Xenopus laevis Oocytes assessed as inhibition of acetylcholine-induced current at 10 uM in presence of acetylcholine by electrophysiological recording relative to control; format: cell-based; conditions: Oocyte
[20] = molecular target: Neuronal acetylcholine receptor subunit alpha-7 (Rattus norvegicus) (UniProt Q05941); experiment: Inhibition of rat alpha7 nAChR expressed in Stage V-VI Xenopus laevis Oocytes assessed as inhibition of acetylcholine-induced current at 10 uM in presence of acetylcholine by electrophysiological recording relative to control; format: cell-based; conditions: Oocyte
[21] = molecular target: Nicotinic acetylcholine receptor alpha9/alpha10 (Rattus norvegicus) (UniProt P43144+Q9JLB5); experiment: Inhibition of rat alpha9/alpha10 nAChR expressed in Stage V-VI Xenopus laevis Oocytes assessed as inhibition of acetylcholine-induced current at 10 uM in presence of acetylcholine by electrophysiological recording relative to control; format: cell-based; conditions: Oocyte
[22] = molecular target: Nicotinic acetylcholine receptor alpha6/alpha3/beta2/beta3 (Rattus norvegicus) (UniProt P04757+P12390+P12391+P43143); experiment: Inhibition of rat alpha6/alpha3beta2beta3 nAChR expressed in Stage V-VI Xenopus laevis Oocytes assessed as inhibition of acetylcholine-induced current at 10 uM in presence of acetylcholine by electrophysiological recording relative to control; format: cell-based; conditions: Oocyte
[23] = molecular target: Nicotinic acetylcholine receptor alpha1/beta1/epsilon/delta (Mus musculus) (UniProt P04756+P09690+P02716+P20782); experiment: Inhibition of mouse alpha1/beta1deltaepsilon nAChR expressed in Stage V-VI Xenopus laevis Oocytes assessed as inhibition of acetylcholine-induced current at 10 uM in presence of acetylcholine by electrophysiological recording relative to control; format: cell-based; conditions: Oocyte
[24] = molecular target: Nicotinic acetylcholine receptor alpha6/alpha3/beta4 (Rattus norvegicus) (UniProt P04757+P12392+P43143); experiment: as §1, with “current by measuring recovery time at 10 uM preincubated with compound for 5 mins followed by washout” for “current”; format: cell-based; conditions: Oocyte

T1 sequence (P04757 whole entry): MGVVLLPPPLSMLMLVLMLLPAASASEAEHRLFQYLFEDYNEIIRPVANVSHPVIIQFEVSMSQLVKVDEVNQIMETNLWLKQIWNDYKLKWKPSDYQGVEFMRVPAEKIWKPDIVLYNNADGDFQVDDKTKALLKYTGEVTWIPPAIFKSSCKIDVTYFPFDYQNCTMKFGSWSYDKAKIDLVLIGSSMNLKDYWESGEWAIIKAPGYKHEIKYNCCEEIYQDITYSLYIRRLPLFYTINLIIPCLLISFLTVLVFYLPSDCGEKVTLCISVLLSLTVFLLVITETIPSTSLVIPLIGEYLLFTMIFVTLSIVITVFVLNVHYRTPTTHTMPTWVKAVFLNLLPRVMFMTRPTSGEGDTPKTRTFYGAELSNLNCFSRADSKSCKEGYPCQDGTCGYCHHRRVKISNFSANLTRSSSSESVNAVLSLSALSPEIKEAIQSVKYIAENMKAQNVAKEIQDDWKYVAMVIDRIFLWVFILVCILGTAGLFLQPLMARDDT
T1 sequence (P12392 whole entry): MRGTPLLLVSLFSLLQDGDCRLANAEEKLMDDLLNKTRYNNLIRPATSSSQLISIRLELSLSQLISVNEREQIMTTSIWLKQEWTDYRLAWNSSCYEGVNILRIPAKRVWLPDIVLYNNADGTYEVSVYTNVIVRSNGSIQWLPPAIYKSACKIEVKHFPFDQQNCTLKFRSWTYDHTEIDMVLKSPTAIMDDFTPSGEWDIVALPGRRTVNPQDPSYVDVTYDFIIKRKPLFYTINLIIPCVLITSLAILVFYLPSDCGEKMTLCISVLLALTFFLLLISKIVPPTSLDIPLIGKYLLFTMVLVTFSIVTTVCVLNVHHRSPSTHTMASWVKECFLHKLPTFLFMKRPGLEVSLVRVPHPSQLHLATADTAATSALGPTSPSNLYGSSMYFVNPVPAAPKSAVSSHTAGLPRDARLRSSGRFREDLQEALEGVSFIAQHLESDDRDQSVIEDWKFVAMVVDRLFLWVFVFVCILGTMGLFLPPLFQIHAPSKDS
T1 sequence (P43143 whole entry): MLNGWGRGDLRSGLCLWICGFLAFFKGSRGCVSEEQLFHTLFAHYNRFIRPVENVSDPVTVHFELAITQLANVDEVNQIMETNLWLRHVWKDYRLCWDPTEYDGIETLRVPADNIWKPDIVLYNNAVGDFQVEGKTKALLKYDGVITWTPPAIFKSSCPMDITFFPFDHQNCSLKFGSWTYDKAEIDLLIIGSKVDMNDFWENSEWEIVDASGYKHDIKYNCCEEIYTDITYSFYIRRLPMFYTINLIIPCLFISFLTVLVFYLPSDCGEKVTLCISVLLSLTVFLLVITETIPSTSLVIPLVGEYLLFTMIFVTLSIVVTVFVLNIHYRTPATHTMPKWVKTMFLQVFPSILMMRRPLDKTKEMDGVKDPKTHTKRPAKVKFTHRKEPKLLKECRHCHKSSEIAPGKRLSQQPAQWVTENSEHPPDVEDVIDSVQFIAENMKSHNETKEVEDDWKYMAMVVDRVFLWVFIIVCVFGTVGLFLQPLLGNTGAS
Chain of Neuronal acetylcholine receptor; alpha4/beta4 (P09483 whole entry): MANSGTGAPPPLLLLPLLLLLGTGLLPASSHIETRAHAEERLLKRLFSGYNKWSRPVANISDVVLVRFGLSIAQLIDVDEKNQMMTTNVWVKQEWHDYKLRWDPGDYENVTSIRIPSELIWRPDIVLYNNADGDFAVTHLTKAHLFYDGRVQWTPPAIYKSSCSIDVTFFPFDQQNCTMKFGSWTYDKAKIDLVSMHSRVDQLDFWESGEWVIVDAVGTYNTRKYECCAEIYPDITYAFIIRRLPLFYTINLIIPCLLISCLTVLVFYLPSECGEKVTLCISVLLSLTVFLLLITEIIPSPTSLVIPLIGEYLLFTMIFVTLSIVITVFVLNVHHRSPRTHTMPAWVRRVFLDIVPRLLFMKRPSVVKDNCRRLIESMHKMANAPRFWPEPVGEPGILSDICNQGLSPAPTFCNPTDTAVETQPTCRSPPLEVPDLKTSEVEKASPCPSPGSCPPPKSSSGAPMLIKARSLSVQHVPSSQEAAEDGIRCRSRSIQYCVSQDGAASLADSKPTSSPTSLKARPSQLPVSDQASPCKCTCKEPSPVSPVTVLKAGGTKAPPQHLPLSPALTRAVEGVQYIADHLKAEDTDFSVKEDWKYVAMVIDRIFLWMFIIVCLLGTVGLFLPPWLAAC
Chain of Neuronal acetylcholine receptor; alpha4/beta4 (P12392 whole entry): as the sequence (P12392 whole entry) above
Chain of Neuronal acetylcholine receptor; alpha4/beta2 (P09483 whole entry): as the sequence (P09483 whole entry) above
Chain of Neuronal acetylcholine receptor; alpha4/beta2 (P12390 whole entry): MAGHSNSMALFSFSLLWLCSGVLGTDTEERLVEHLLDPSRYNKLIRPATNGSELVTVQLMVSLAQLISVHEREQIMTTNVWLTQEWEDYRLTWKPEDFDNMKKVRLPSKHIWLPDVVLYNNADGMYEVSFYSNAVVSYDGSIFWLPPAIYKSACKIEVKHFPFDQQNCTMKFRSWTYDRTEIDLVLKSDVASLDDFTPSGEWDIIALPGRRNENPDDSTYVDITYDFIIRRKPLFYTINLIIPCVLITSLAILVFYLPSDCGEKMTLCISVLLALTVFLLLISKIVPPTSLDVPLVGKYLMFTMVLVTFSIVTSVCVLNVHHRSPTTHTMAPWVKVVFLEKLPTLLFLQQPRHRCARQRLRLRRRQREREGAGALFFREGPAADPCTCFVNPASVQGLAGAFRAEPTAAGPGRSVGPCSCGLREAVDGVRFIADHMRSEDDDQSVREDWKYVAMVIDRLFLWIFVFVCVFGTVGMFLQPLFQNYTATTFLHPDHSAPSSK
Chain of Neuronal acetylcholine receptor; alpha3/beta4 (P04757 whole entry): as the sequence (P04757 whole entry) above
Chain of Neuronal acetylcholine receptor; alpha3/beta4 (P12392 whole entry): as the sequence (P12392 whole entry) above

## CC(C)C[C@H](NC(=O)[C@@H](NC(=O)[C@H](C)NC(=O)[C@H](CS)NC(=O)[C@@H]1CCCN1C(=O)[C@@H]1CCC(=O)N1C(=O)[C@H](C)NC(=O)[C@H](CO)NC(=O)[C@H](CS)NC(=O)[C@H](CS)NC(=O)CN)C(C)C)C(=O)N[C@@H](Cc1ccc(O)cc1)C(=O)N[C@@H](CS)C(N)=O
[1]
  IC50: 0.0581 µM
[2]
  Ratio: 20

## CC(C)[C@H](NC(=O)[C@@H]1CCCN1C(=O)[C@H](CC(N)=O)NC(=O)[C@H](C)NC(=O)[C@H](CS)NC(=O)[C@H](CS)NC(=O)[C@@H](N)CC(=O)O)C(=O)N[C@@H](CS)C(=O)N[C@@H](CC(N)=O)C(=O)NCC(=O)N[C@@H](CCCCN)C(=O)N[C@@H](Cc1cnc[nH]1)C(=O)N[C@@H](CS)C(N)=O (H-DCCANPVCNGKHC-NH2)
[3]
  IC50: > 10 µM
[4]
  IC50: > 10 µM
[5]
  IC50: > 10 µM
[6]
  IC50: > 10 µM
[7]
  IC50: > 10 µM
[8]
  IC50: > 10 µM
[9]
  IC50: > 10 µM
[10]
  IC50: > 10 µM
[11]
  IC50: > 10 µM
[12]
  IC50: 0.31 µM
[13]
  IC50: > 10 µM
[14]
  inhibition: < 50%
[15]
  inhibition: < 50%
[16]
  inhibition: < 50%
[17]
  inhibition: < 50%
[18]
  inhibition: < 50%
[19]
  inhibition: < 50%
[20]
  inhibition: < 50%
[21]
  inhibition: < 50%
[22]
  inhibition: < 50%
[23]
  inhibition: < 50%

## CC(C)[C@@H]1NC(=O)[C@@H]2CCCN2C(=O)[C@H](CC(N)=O)NC(=O)[C@H](C)NC(=O)[C@@H]2CSSC[C@@H](C(=O)N[C@@H](CCC(N)=O)C(=O)O)NC(=O)[C@H](Cc3cnc[nH]3)NC(=O)[C@H](CCCCN)NC(=O)CNC(=O)[C@H](CC(N)=O)NC(=O)[C@H](CSSC[C@H](NC(=O)[C@@H](N)CC(=O)O)C(=O)N2)NC1=O (H-DCCANPVCNGKHCQ-OH; disulfide 2-8, 3-13)
[3]
  IC50: > 10 µM
[4]
  IC50: > 10 µM
[5]
  IC50: > 10 µM
[6]
  IC50: > 10 µM
[7]
  IC50: > 10 µM
[8]
  IC50: > 10 µM
[9]
  IC50: > 10 µM
[10]
  IC50: > 10 µM
[11]
  IC50: > 10 µM
[12]
  IC50: 3.3 µM
[13]
  IC50: > 10 µM
[14]
  inhibition: < 50%
[15]
  inhibition: < 50%
[16]
  inhibition: < 50%
[17]
  inhibition: < 50%
[18]
  inhibition: < 50%
[19]
  inhibition: < 50%
[20]
  inhibition: < 50%
[21]
  inhibition: < 50%
[22]
  inhibition: < 50%
[23]
  inhibition: < 50%

## CC(C)[C@H](NC(=O)[C@@H]1CCCN1C(=O)[C@H](CC(N)=O)NC(=O)[C@H](C)NC(=O)[C@H](CS)NC(=O)[C@H](CS)NC(=O)CN)C(=O)N[C@@H](CS)C(=O)N[C@@H](CC(N)=O)C(=O)NCC(=O)N[C@@H](C)C(=O)N[C@@H](Cc1cnc[nH]1)C(=O)N[C@@H](CS)C(N)=O (H-GCCANPVCNGAHC-NH2)
[12]
  IC50: 0.0723 µM
[24]
  TIME: 0.217 h

## CC(C)[C@H](NC(=O)[C@H](CS)NC(=O)[C@H](C)NC(=O)[C@@H]1CCCN1C(=O)[C@H](CC(N)=O)NC(=O)[C@H](Cc1c[nH]c2ccccc12)NC(=O)[C@H](CS)NC(=O)[C@H](CS)NC(=O)CNC(=O)C1CC(NC(=O)[C@H](CO)NC(=O)C2CCC(=O)N2)CN1)C(=O)N[C@@H](CCCCN)C(=O)N[C@@H](CC(N)=O)C(=O)N[C@@H](CCCNC(=N)N)C(=O)N[C@@H](CS)C(N)=O (stereo not given in full) (H-[ξPro(4ξ-NH2)]([Ser-ξpGlu])GCCWNPACVKNRC-NH2)
[12]
  IC50: 0.094 µM
[24]
  TIME: 0.05 h

## CC(C)[C@H](NC(=O)[C@H](Cc1cnc[nH]1)NC(=O)[C@H](CCCCN)NC(=O)[C@H](CS)NC(=O)[C@@H]1CCCN1C(=O)[C@@H]1CCCN1C(=O)[C@H](CC(N)=O)NC(=O)[C@H](C)NC(=O)[C@H](CS)NC(=O)[C@H](CS)NC(=O)C1CCC(=O)N1)C(=O)N[C@@H](CC(N)=O)C(=O)N[C@@H](CS)C(=O)N[C@@H](CCCNC(=N)N)C(N)=O (stereo not given in full) ([ξpGlu]CCANPPCKHVNCR-NH2)
[12]
  IC50: 0.0818 µM
[24]
  TIME: 0.15 h
